Laboratory results reported in ChEMBL document CHEMBL1201862, “PubChem BioAssay data set” (2004).
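The compound was tested at five concentrations on cells cultured in 96-well plates, with a 48-hour exposure period. GI50 = concentration required for 50% inhibition of growth.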 Activity calls are given as the source filed them. Cut-off read from the data, not from the text of the source: active = GI50 up to about 1.1 µM and inactive = higher.

Experiments:
Assay in all cases: growth of human tumour cells (NCI), 48 h
[1] = system: RXF 393
[2] = system: BT-549
[3] = system: OVCAR-5
[4] = system: SNB-75
[5] = system: HOP-92
[6] = system: NCI/ADR-RES
[7] = system: MOLT-4
[8] = system: UACC-257
[9] = system: TK-10
[10] = system: SF-268
[11] = system: MDA-MB-435
[12] = system: MDA-MB-231
[13] = system: K562
[14] = system: SF-539
[15] = system: T47D
[16] = system: SK-MEL-5
[17] = system: EKVX
[18] = system: NCI-H226
[19] = system: SK-OV-3
[20] = system: COLO 205

Measured: GI50

COC1CC(OC2CCC3(C)C(CCC45CCC(C6=CC(=O)OC6)C(C)(CCC43)C5=O)C2)OC(C)C1O (stereo not given)
inactive: [1] 24 µM | [2] 20.8 µM | [3] 40.8 µM | [4] 30.3 µM | [5] 81.5 µM | [6] 32.5 µM | [7] 32.1 µM | [8] > 100 µM | [9] 51.2 µM | [10] 17.5 µM | [11] > 100 µM | [12] > 100 µM | [13] 59.8 µM | [14] 20.3 µM | [15] 30.8 µM | [16] 18.1 µM | [17] 32.4 µM | [18] 53.1 µM | [19] 46.1 µM | [20] 40.5 µM

COc1cc2c(c(OC)c1OC)C(=O)[C@H](Br)[C@H]2NC(=O)NCCCl
inactive: [1] 97.1 µM | [2] 38.6 µM | [3] > 100 µM | [4] > 100 µM | [5] > 100 µM | [6] > 100 µM | [7] 46.7 µM | [8] > 100 µM | [9] > 100 µM | [10] 49.9 µM | [11] 40.5 µM | [12] > 100 µM | [13] 58.2 µM | [14] > 100 µM | [15] > 100 µM | [16] 37.2 µM | [17] 50.1 µM | [18] 88.5 µM | [19] 59 µM | [20] 50.8 µM

CCOC(=O)N1CCC2(CC1)CC(=O)N(Nc1ccccc1)C2=O
inactive: [1] > 100 µM | [2] > 100 µM | [3] 91.6 µM | [4] > 100 µM | [5] > 100 µM | [6] > 100 µM | [7] > 100 µM | [8] > 100 µM | [9] > 100 µM | [10] > 100 µM | [11] 30.8 µM | [12] > 100 µM | [13] 16.9 µM | [14] 27.5 µM | [15] 43.5 µM | [16] > 100 µM | [17] > 100 µM | [18] > 100 µM | [19] > 100 µM | [20] > 100 µM
